US9029391B2 (priority 2011, dated 2015)
Like-named read-outs stand apart in the source and are kept apart here.

Tested on: HIV
Assay: MT4 Assay (anti-HIV activity)
Format: cell-based
Procedure, shortened: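 IC50 values were fitted to 10-point dose-response series (3-4-fold dilutions, range >1000-fold), normalized to no-compound control. CellTiter-Glo read-out was taken after 96 hours in HTLV-1-transformed MT-4 cells. Cytotoxicity was measured in parallel under identical conditions.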

[1] = Human immunodeficiency virus 1, 96 h, read-out: HIV MT4 Assay IC50, HTLV-1 transformed cell line MT-4, cell titer glo, 10 point dose response curve
[2] = read-out: HIV MT4 Assay IC50, HTLV-1 transformed cell line MT-4, 96 hours, cell titer glo, 10 point dose response curve

Row | SMILES | IC50 [1] | IC50 [2]
1 | Cc1c(-c2c(C(OC(C)(C)C)C(=O)O)n(C)c(=O)c3cc(OCc4ccc(F)cc4F)ccc23)ccc2c1CCCO2 (stereo not shown) [Example 134, 2-(tert-butoxy)-2-{7-[(2,4-difluorophenyl)methoxy]-2-methyl-4-(5-methyl-3,4-dihydro-2H-1-benzopyran-6-yl)-1-oxo-1,2-dihydroisoquinolin-3-yl}acetic acid] | 70 nM | –
2 | Cc1c(-c2c(C(OC(C)(C)C)C(=O)O)n(C)c(=O)c3cc(OC(C)C)ccc23)ccc2c1CCCO2 (stereo not shown) [Example 135, 2-(tert-butoxy)-2-[2-methyl-4-(5-methyl-3,4-dihydro-2H-1-benzopyran-6-yl)-1-oxo-7-(propan-2-yloxy)-1,2-dihydroisoquinolin-3-yl]acetic acid] | 140 nM | –
3 | Cc1c(-c2c(C(OC(C)(C)C)C(=O)O)n(C)c(=O)c3cc(OCc4ccc(Cl)cc4)ccc23)ccc2c1CCCO2 (stereo not shown) [Example 136, 2-(tert-butoxy)-2-{7-[(4-chlorophenyl)methoxy]-2-methyl-4-(5-methyl-3,4-dihydro-2H-1-benzopyran-6-yl)-1-oxo-1,2-dihydroisoquinolin-3-yl}acetic acid] | 100 nM | –
4 | Cc1c(-c2c(C(OC(C)(C)C)C(=O)O)n(C)c(=O)c3cc(OCc4cncnc4)ccc23)ccc2c1CCCO2 (stereo not shown) [Example 137, 2-(tert-butoxy)-2-[2-methyl-4-(5-methyl-3,4-dihydro-2H-1-benzopyran-6-yl)-1-oxo-7-(pyrimidin-5-ylmethoxy)-1,2-dihydroisoquinolin-3-yl]acetic acid] | 1030 nM | –
5 | Cc1c(-c2c(C(OC(C)(C)C)C(=O)O)n(C)c(=O)c3cc(OCc4ccc(F)c(F)c4)ccc23)ccc2c1CCCO2 (stereo not shown) [Example 138, 2-(tert-butoxy)-2-{7-[(3,4-difluorophenyl)methoxy]-2-methyl-4-(5-methyl-3,4-dihydro-2H-1-benzopyran-6-yl)-1-oxo-1,2-dihydroisoquinolin-3-yl}acetic acid] | 70 nM | –
6 | Cc1c(-c2c([C@H](OC(C)(C)C)C(=O)O)n(C)c(=O)c3cc(F)ccc23)cc(F)c2c1CCCO2 [Example 139, (2S)-2-(tert-butoxy)-2-[7-fluoro-4-(8-fluoro-5-methyl-3,4-dihydro-2H-1-benzopyran-6-yl)-2-methyl-1-oxo-1,2-dihydroisoquinolin-3-yl]acetic acid] | 30 nM | –
7 | Cc1c(-c2c([C@H](OC(C)(C)C)C(=O)O)n(C)c(=O)c3ccccc23)ccc2c1CCCO2 [Example 140, (2S)-2-(tert-butoxy)-2-[2-methyl-4-(5-methyl-3,4-dihydro-2H-1-benzopyran-6-yl)-1-oxo-1,2-dihydroisoquinolin-3-yl]acetic acid] | 110 nM | –
8 | Cc1c(-c2c([C@H](OC(C)(C)C)C(=O)O)n(C)c(=O)c3cc(OCCF)ccc23)ccc2c1CCCO2 [Example 141, (2S)-2-(tert-butoxy)-2-[7-(2-fluoroethoxy)-2-methyl-4-(5-methyl-3,4-dihydro-2H-1-benzopyran-6-yl)-1-oxo-1,2-dihydroisoquinolin-3-yl]acetic acid] | 30 nM | –
9 | Cc1c(-c2c(C(OC(C)(C)C)C(=O)O)n(C)c(=O)c3cc(OCc4cccs4)ccc23)ccc2c1CCCO2 (stereo not shown) [Example 142, 2-(tert-butoxy)-2-[2-methyl-4-(5-methyl-3,4-dihydro-2H-1-benzopyran-6-yl)-1-oxo-7-(thiophen-2-ylmethoxy)-1,2-dihydroisoquinolin-3-yl]acetic acid] | 30 nM | –
10 | Cc1c(-c2c([C@H](OC(C)(C)C)C(=O)O)n(C)c(=O)c3cc(OCc4ccccn4)ccc23)cc(F)c2c1CCCO2 [Example 143, (2S)-2-(tert-butoxy)-2-[4-(8-fluoro-5-methyl-3,4-dihydro-2H-1-benzopyran-6-yl)-2-methyl-1-oxo-7-(pyridin-2-ylmethoxy)-1,2-dihydroisoquinolin-3-yl]acetic acid] | 30 nM | –
11 | Cc1c(-c2c([C@H](OC(C)(C)C)C(=O)O)n(C)c(=O)c3cc(OCc4ccccn4)ccc23)ccc2c1CCCO2 [Example 144, (2S)-2-(tert-butoxy)-2-[2-methyl-4-(5-methyl-3,4-dihydro-2H-1-benzopyran-6-yl)-1-oxo-7-(pyridin-2-ylmethoxy)-1,2-dihydroisoquinolin-3-yl]acetic acid] | 40 nM | –
12 | Cc1c(-c2c(C(OC(C)(C)C)C(=O)O)n(C)c(=O)c3cc(OCc4ccc(F)cc4)ccc23)cc(F)c2c1CCCO2 (stereo not shown) [Example 145, 2-(tert-butoxy)-2-[4-(8-fluoro-5-methyl-3,4-dihydro-2H-1-benzopyran-6-yl)-7-[(4-fluorophenyl)methoxy]-2-methyl-1-oxo-1,2-dihydroisoquinolin-3-yl]acetic acid] | 110 nM | –
13 | Cc1c(-c2c(C(OC(C)(C)C)C(=O)O)n(C)c(=O)c3cc(OCc4ccc(OC(F)(F)F)cc4)ccc23)ccc2c1CCCO2 (stereo not shown) [Example 146, 2-(tert-butoxy)-2-[2-methyl-4-(5-methyl-3,4-dihydro-2H-1-benzopyran-6-yl)-1-oxo-7-{[4-(trifluoromethoxy)phenyl]-methoxy}-1,2-dihydroisoquinolin-3-yl]acetic acid] | 260 nM | –
14 | Cc1c(-c2c([C@H](OC(C)(C)C)C(=O)O)n(C)c(=O)c3cc(OCc4ccc(F)cc4)ccc23)ccc2c1CCCO2 [Example 147, (2S)-2-(tert-butoxy)-2-{7-[(4-fluorophenyl)methoxy]-2-methyl-4-(5-methyl-3,4-dihydro-2H-1-benzopyran-6-yl)-1-oxo-1,2-dihydroisoquinolin-3-yl}acetic acid] | 20 nM | –
15 | Cc1c(-c2c([C@H](OC(C)(C)C)C(=O)O)n(C)c(=O)c3cc(OCc4ccc(F)cc4F)ccc23)ccc2c1CCCO2 [Example 148, (2S)-2-(tert-butoxy)-2-{7-[(2,4-difluorophenyl)methoxy]-2-methyl-4-(5-methyl-3,4-dihydro-2H-1-benzopyran-6-yl)-1-oxo-1,2-dihydroisoquinolin-3-yl}acetic acid] | 50 nM | –
16 | CC1CCOc2ccc(-c3c(C(OC(C)(C)C)C(=O)O)n(C)c(=O)c4ccccc34)cc21 (stereo not shown) [Example 149, [(1,1-dimethylethyl)oxy][2-methyl-4-(4-methyl-3,4-dihydro-2H-chromen-6-yl)-1-oxo-1,2-dihydro-3-isoquinolinyl]acetic acid] | 1170 nM | –
17 | Cc1c(-c2c(C(OC(C)(C)C)C(=O)O)n(C)c(=O)c3ccccc23)cc(F)c2c1CCCO2 (stereo not shown) [Example 150, [(1,1-dimethylethyl)oxy][4-(8-fluoro-5-methyl-3,4-dihydro-2H-chromen-6-yl)-2-methyl-1-oxo-1,2-dihydro-3-isoquinolinyl]acetic acid] | 160 nM | –
18 | Cn1c(C(OC(C)(C)C)C(=O)O)c(-c2ccc3c(c2)CCC3)c2ccccc2c1=O (stereo not shown) [Example 152, 2-(tert-butoxy)-2-(4-(2,3-dihydro-1H-inden-5-yl)-2-methyl-1-oxo-1,2-dihydroisoquinolin-3-yl)acetic acid] | 430 nM | –
19 | Cn1c(C(OC(C)(C)C)C(=O)O)c(-c2ccc3ncsc3c2)c2ccccc2c1=O (stereo not shown) [Example 153, 2-(4-(benzo[d]thiazol-6-yl)-2-methyl-1-oxo-1,2-dihydroisoquinolin-3-yl)-2-(tert-butoxy)acetic acid] | 3880 nM | –
20 | Cn1c(C(OC(C)(C)C)C(=O)O)c(-c2ccc(Cl)cc2)c2ccccc2c1=O (stereo not shown) [Example 154, [4-(4-chlorophenyl)-2-methyl-1-oxo-1,2-dihydro-3-isoquinolinyl][(1,1-dimethylethyl)oxy]acetic acid] | 2090 nM | –
21 | Cc1occc1-c1c(C(OC(C)(C)C)C(=O)O)n(C)c(=O)c2ccccc12 (stereo not shown) [Example 155, [(1,1-dimethylethyl)oxy][2-methyl-4-(2-methyl-3-furanyl)-1-oxo-1,2-dihydro-3-isoquinolinyl]acetic] | 13300 nM | –
22 | Cn1c(C(OC(C)(C)C)C(=O)O)c(-c2ccccc2)c2ccccc2c1=O (stereo not shown) [Example 156, [(1,1-dimethylethyl)oxy](2-methyl-1-oxo-4-phenyl-1,2-dihydro-3-isoquinolinyl)acetic acid] | 800 nM | –
23 | Cn1cc(-c2c(C(OC(C)(C)C)C(=O)O)n(C)c(=O)c3ccccc23)cn1 (stereo not shown) [Example 157, [(1,1-dimethylethyl)oxy][2-methyl-4-(1-methyl-1H-pyrazol-4-yl)-1-oxo-1,2-dihydro-3-isoquinolinyl]acetic acid] | 41600 nM | –
24 | Cn1c(C(OC(C)(C)C)C(=O)O)c(-c2cc3c4c(c2)CCCN4CCC3)c2ccccc2c1=O (stereo not shown) [Example 158, [(1,1-dimethylethyl)oxy][2-methyl-1-oxo-4-(2,3,6,7-tetrahydro-1H,5H-pyrido[3,2,1-ij]quinolin-9-yl)-1,2-dihydro-3-isoquinolinyl]acetic acid] | 50000 nM | –
25 | Cc1c(-c2c([C@@H](OC(C)(C)C)C(=O)O)n(C)c(=O)c3ccccc23)cc(F)c2c1CCCO2 [Example 160, (2R)-2-(tert-butoxy)-2-[4-(8-fluoro-5-methyl-3,4-dihydro-2H-1-benzopyran-6-yl)-2-methyl-1-oxo-1,2-dihydroisoquinolin-3-yl]acetic acid] | – | 41600 nM
26 | Cc1c(-c2c([C@@H](OC(C)(C)C)C(=O)O)n(C)c(=O)c3ccccc23)cc(F)c2c1CCCO2 [Example 161, (2R)-2-(tert-butoxy)-2-[4-(8-fluoro-5-methyl-3,4-dihydro-2H-1-benzopyran-6-yl)-2-methyl-1-oxo-1,2-dihydroisoquinolin-3-yl]acetic acid] | – | 7210 nM
27 | Cc1c(-c2c([C@H](OC(C)(C)C)C(=O)O)n(C)c(=O)c3ccccc23)cc(F)c2c1CCCO2 [Example 162, (2S)-2-(tert-butoxy)-2-[4-(8-fluoro-5-methyl-3,4-dihydro-2H-1-benzopyran-6-yl)-2-methyl-1-oxo-1,2-dihydroisoquinolin-3-yl]acetic acid] | – | 4190 nM
28 | COc1ccc(Cc2ccc3c(-c4ccc(C)c(C)c4)c(C(OC(C)(C)C)C(=O)O)n(C)c(=O)c3c2)cc1 (stereo not shown) [Example 171, [(1,1-dimethylethyl)oxy](4-(3,4-dimethylphenyl)-2-methyl-7-{[4-(methyloxy)phenyl]methyl}-1-oxo-1,2-dihydro-3-isoquinolinyl)acetic acid] | 1300 nM | –
